Source: PMC9854712 (Antioxidants, 2023)

What was measured:
HTB-54 cells = assay: MTT cell viability assay, HTB-54; format: cell-based; details: for viability at 10 µM / IC50: HTB-54, 48 h, MTT; for viability at 10 µM: read-out: Cell growth % at 10 µM, HTB-54; for SI (lung): IC50 (BEAS-2B)/IC50 (HTB-54)
Protocol: The cell lines were obtained from the American Type Culture Collection (ATCC). Five tumor cell lines (MDA-MB-231, MCF-7, HCT116, HTB-54, and DU-145) and two non-tumorigenic cells (184B5 and BEAS-2B) were grown in RPMI 1640 medium (Gibco), and the HT-29 tumor cell line was grown in McCoy’s medium. Both mediums were supplemented with 10% fetal bovine serum (FBS; Gibco) and 1% antibiotics (10.00 units/mL penicillin and 10.00 μg/mL streptomycin; Gibco). Cells were preserved in tissue culture flasks at 37 °C and 5% CO2. The culture medium was replaced every three days.
The effect of each compound on cell viability was tested using the MTT assay. […] Selected compounds were then tested at seven different concentrations (0.5–100 μM) in MCF-7, HCT116, HT-29, HTB-54, 184B5 and BEAS-2B cells. Cells were seeded at 10^4 per well onto flat-bottomed 96-well culture plates. They were treated with either DMSO or increasing concentration of the corresponding compound for 48 h. Then, they were incubated with 20 μL of 3-(4,5-dimethylthiazol-2-yl)-2,5-diphenyltetrazolium bromide (MTT) (2 mg /mL stock; Aldrich) for 2,5 h and analyzed for their ability to generate a purple formazan dye. These formazan crystals were dissolved in 50 μL of DMSO. The absorbance was measured at a wavelength of 550 nm and the ratio of viable cells was calculated.
Results are expressed as cell viability % at 10 μM. Selectivity index were calculated as the ratio of the IC50 values determined for the non-malignant and the tumor cells in breast (IC50 (184B5)/IC50 (MCF-7)) and lung (IC50 (BEAS-2B)/IC50 (HTB-54)) cell lines. Data were obtained from at least three independent experiments performed in triplicates.

AChE = molecular target: T1, AChE (Rattus norvegicus, UniProt P37136); assay: AChE inhibition by Ellman's method (rat frontal cortex homogenate); format: biochemical
T1 construct: from tissue; host or cells: frontal cortex of male Wistar rats (crude homogenate)
T1 sequence (P37136 32-614): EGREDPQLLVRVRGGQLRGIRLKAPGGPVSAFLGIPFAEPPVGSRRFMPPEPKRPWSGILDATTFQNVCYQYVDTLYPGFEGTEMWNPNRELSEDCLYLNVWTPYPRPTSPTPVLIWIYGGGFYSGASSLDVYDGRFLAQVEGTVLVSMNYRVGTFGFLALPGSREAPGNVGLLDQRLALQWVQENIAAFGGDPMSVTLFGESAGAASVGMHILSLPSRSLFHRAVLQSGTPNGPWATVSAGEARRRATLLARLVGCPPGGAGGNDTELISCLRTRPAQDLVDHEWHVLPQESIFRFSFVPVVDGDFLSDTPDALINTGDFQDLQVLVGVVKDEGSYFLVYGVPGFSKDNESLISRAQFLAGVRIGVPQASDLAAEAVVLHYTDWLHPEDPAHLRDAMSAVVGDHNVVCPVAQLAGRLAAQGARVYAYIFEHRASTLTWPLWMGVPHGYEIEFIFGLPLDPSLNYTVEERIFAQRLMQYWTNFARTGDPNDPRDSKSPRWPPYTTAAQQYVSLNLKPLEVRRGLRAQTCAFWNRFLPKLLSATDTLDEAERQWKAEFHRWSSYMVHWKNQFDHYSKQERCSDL
Protocol: Frontal cortex tissue obtained from male Wistar rats was homogenized in 39 volumes of 75 mM sodium phosphate buffer (pH 7.4). A mixture of 260 μL containing the compounds assessed, acetylthiocholine iodide and 5 μL tissue homogenate was incubated for 8 min. The reaction was then terminated by adding 50 μL 3% (w/v) sodium dodecyl sulphate followed by 50 μL 0.2% (w/v) 5,5′-dithio-bis(2-nitrobenzoic) acid to produce the yellow anion of 5-thio-2-nitro-benzoic-acid. The extent of the color production was measured spectrophotometrically at 405 nm using Multiskan Ex (Thermo Electron Corporation). […] Results are expressed as the mean ± SD and each experiment was repeated three times.

in vitro = assay: in vitro
Protocol: Franz diffusion cells (Microette 8910130, Hanson Research) were employed to perform this assay. The compounds were dissolved in DMSO at 5 mg/mL and diluted to 500 µg/mL with phosphate-buffered saline (PBS)/EtOH (7:3) to make a stock solution. A total of 10 µL of porcine brain lipid (PBL) diluted in dodecane solution (20 mg/mL) was spread onto a PVDF membrane that was placed between the donor and acceptor compartments, forming a sandwich structure. Then, 4.5 mL of PBS/EtOH (7:3) was added to the acceptor compartment and 700 µL of the stock solution was added to the donor cell. […] The concentration of the compound was calculated from the standard curve and expressed as permeability (Pe) by the following formula [84]:Permeability (cm/s): Pe = {−ln [1 − CA(t)/Ceq]}/[A ∗ (1/VD + 1/VA) ∗ t]
A = filter area ([…]), VD = donor cell volume (0.7 mL), VA = acceptor cell volume (4.5 mL), t = incubation time, CA (t) = compound concentration in acceptor cell at time t, CD (t) = compound concentration in donor cell at time t, and Ceq = [CD(t) ∗ VD + […] ∗ VA]/(VD + VA).
Every sample was analyzed at least in duplicate and the data were reported as mean ± SD.

Structure (SMILES)	viability at 10 µM (HTB-54 cells)	IC50 (HTB-54 cells)	SI (lung) (HTB-54 cells)	inhibition at 1 µM (AChE; at 10^−6 M, Ellman's method)	IC50 (AChE)	% AChE Inhibition (AChE; at 10^−6 M, Ellman's method)	Papp at 20 h, 500 µg/mL (in vitro; PAMPA)	fold higher Pe compared to galantamine (in vitro; PAMPA-BBB)	Pe ± SD (in vitro; PAMPA-BBB, porcine brain lipid, 20 h, 25 °C)	BBB Permeation (Experimental) (in vitro; class from PAMPA-BBB Pe)
C=CC[Se]C(=O)Cc1c(C)n(C(=O)c2ccc(Cl)cc2)c2ccc(OC)cc12 [Compound 17a, Se-allyl 2-[1-(4-chlorobenzoyl)-5-methoxy-2-methyl-1H-indol-3-yl]ethaneselenoate]	21.9 ± 6.5%	7.9 ± 1.9 µM	0.8	19.2 ± 8.3%	–	–	–	–	–	–
C=CC[Se]C(=O)c1ccccc1OC(C)=O [Compound 14a, 2-(allylselanylcarbonyl)phenylacetate]	34.2 ± 6.2%	9.9 ± 1.1 µM	0.7	43.5%	0.9 ± 0.2 µM	43.5 ± 2.6%	36.9 ± 0.1 ×10⁻⁶ cm/s	3 fold	36.92 ×10⁻⁶ cm/s	High (High BBB permeation predicted; Pe (10^−6 cm s^−1) > 4.0)
